Data published in US20040249122A1, “Cationic, amphipathic beta-sheet peptides and uses thereof” (priority 2003, published 2004).
Converted amounts (≈) assume the structure as drawn. “Also recorded” adds a separate entry of the source. Like-named read-outs stand apart in the source and are kept apart here. Where a SMILES comes first, the peptide text is derived from it.

Columns and labels:
[1] = test system: human erythrocytes; experiment: Hemolysis of human erythrocytes; assay type: cell-based
Protocol: (§1) Antimicrobial and Hemolytic Assays. Antimicrobial susceptibility testing against Staphylococcus aureus (ATCC 29213), Escherichia coli (ATCC 25922), and Pseudomonas aeruginosa (ATCC 27853) was performed using a modification of the National Committee for Clinical Laboratory Standards microdilution broth assay (22). Mueller-Hinton broth (BBL) was used for diluting the peptide stock solution and for diluting the bacterial inoculum. The inoculum was prepared from mid-logarithmic phase cultures. […] The final concentration of peptide solution ranged-from 0.25 to 256 μg/mL in two-fold dilutions. The final concentration of bacteria in the wells was 5×10^5 CFU/mL. Peptides were tested in duplicate. In addition to the test peptide, three standard peptides and a non-treated growth control were included to validate the assay. The microtiter plates were incubated overnight at 37° C. and the absorbance was measured at 600 nm. […] After incubation at 37° C. for 30 min, the suspension was centrifuged at 10,000×g for 10 min and the absorbance at 400 nm was measured.

[2] = test system: Escherichia coli (ATCC 25922); assay type: cell-based
Protocol: as §1

[3] = test system: Staphylococcus aureus (ATCC 29213); assay type: cell-based
Protocol: as §1

[4] = test system: Pseudomonas aeruginosa (ATCC 27853); assay type: cell-based
Protocol: as §1

[5] = test system: Candida albicans (ATCC 14053)
Protocol: Antimicrobial and Hemolytic Assays. Antimicrobial susceptibility testing against Staphylococcus aureus (ATCC 29213), Escherichia coli (ATCC 25922), and Pseudomonas aeruginosa (ATCC 27853) was performed using a modification of the National Committee for Clinical Laboratory Standards microdilution broth assay (22). Mueller-Hinton broth (BBL) was used for diluting the peptide stock solution and for diluting the bacterial inoculum. The inoculum was prepared from mid-logarithmic phase cultures. Microtiter plate wells received aliquots-of 100 μL each of the inoculum and peptide dilution. The final concentration of peptide solution ranged-from 0.25 to 256 μg/mL in two-fold dilutions. The final concentration of bacteria in the wells was 5×10^5 CFU/mL. Peptides were tested in duplicate. In addition to the test peptide, three standard peptides and a non-treated growth control were included to validate the assay. The microtiter plates were incubated overnight at 37° C. and the absorbance was measured at 600 nm. […] After incubation at 37° C. for 30 min, the suspension was centrifuged at 10,000×g for 10 min and the absorbance at 400 nm was measured. Complete hemolysis was determined by adding 0.2% Triton X-100 in place of the peptide.
Antimicrobial susceptibility testing against Escherichia coli (ATCC 25922), Staphylococcus aureus (ATCC 29213), Pseudomonas aeruginosa (ATCC 27853), and Candida albicans (ATCC 14053) is performed using a modification of the National Committee for Clinical Laboratory Standards microdilution broth assay. Mueller-Hinton broth (BBL) is used for diluting the peptide stock solution and for diluting the bacterial inoculum. The inoculum is prepared from midlogarithmic phase cultures at an approximate concentration of 10^6 CFU/mL. Microtiter plate wells receive aliquots of 0.1 mL each of the inoculum and peptide dilution. The final concentration of the peptide solution ranges from 0.25 to 256 μg/mL in 2-fold dilutions. The microtiter plates are incubated overnight at 37° C.

[6] = Peptide-induced leakage from calcein-loaded LUV
Protocol: Peptide-Induced Leakage from Calcein-Loaded LUV. The ability of the peptides to release calcein (MW 623) from LUV of varying lipid composition was compared. LUV were prepared as above, except that-the buffer consisted of 50 mM HEPES, 100 mM NaCl, 0.3 mM EDTA, 80 mM calcein, pH 7.4. Calcein-loaded vesicles were separated from free calcein by size-exclusion chromatography using a Sephadex G-50 column and calcein-free buffer. Calcein leakage was monitored using a Perkin-Elmer LS-500 luminescence spectrometer by measuring the time-dependent increase in fluorescence of calcein (excitation=490 nm, emission=520 nm). LUV containing 8 nmoles of lipid were added to 1.5 mL of buffer in a stirred cuvet at 25° C. An aliquot of peptide was added to achieve the desired lipid-to-peptide ratio (256 to 8). Complete leakage was determined by the addition of 20 μL of 10% Triton X-100. Each value represents at least nine different measurements using at least three different LUV preparations.

[7] = POPC/POPG LUV, all ratios (1:1 to 4:1)

Compound | % Hemolysis (500 μg/mL) ([1]; red cells of human, 500) [%] | Minimum Inhibitory Concentration, E. coli ([2]; ATCC 25922) [µg/mL] | Minimum Inhibitory Concentration, S. aureus ([3]; ATCC 29213) [µg/mL] | Minimum Inhibitory Concentration, P. aeruginosa ([4]; ATCC 27853) [µg/mL] | Minimum Inhibitory Concentration, C. albicans ([5]; ATCC 14053) [µg/mL] | % Hemolysis (500 μg/mL) ([1]; 500 μg/mL peptide, 5% human erythrocytes, 37° C., 30 min) [%] | Minimum Inhibitory Concentration, E. coli ([2]; Table 2, overnight at 37° C.) [µg/mL] | MIC E. coli ([2]; Table 4) [µg/mL] | Minimum Inhibitory Concentration, S. aureus ([3]; Table 2, overnight at 37° C.) [µg/mL] | MIC Staph. aureus ([3]; Table 4) [µg/mL] | Minimum Inhibitory Concentration, P. aeruginosa ([4]; Table 2, overnight at 37° C.) [µg/mL] | MIC Pseud. aerug ([4]; Table 4) [µg/mL] | Minimum Inhibitory Concentration, C. albicans ([5]; Table 2) [µg/mL] | calcein leakage from LUV (in words) ([6]; 4:1 POPE/POPG LUV) | calcein leakage from LUV (in words) ([6]; POPC (PC) LUV) | calcein leakage from LUV (in words) [6, 7] | calcein release from LUV (in words) ([6]; POPG LUV)
CC[C@H](C)[C@H](NC(=O)CN)C(=O)NCC(=O)N[C@@H](CCCCN)C(=O)N[C@@H](Cc1ccccc1)C(=O)N[C@@H](CC(C)C)C(=O)N[C@@H](Cc1c[nH]cn1)C(=O)N[C@@H](CO)C(=O)N[C@@H](C)C(=O)N[C@@H](CCCCN)C(=O)N[C@@H](CCCCN)C(=O)N[C@@H](Cc1ccccc1)C(=O)NCC(=O)N[C@@H](CCCCN)C(=O)N[C@@H](C)C(=O)N[C@@H](Cc1ccccc1)C(=O)N[C@H](C(=O)NCC(=O)N[C@@H](C)C(=O)N[C@H](C(=O)N[C@@H](CCSC)C(=O)N[C@@H](CC(N)=O)C(=O)N[C@@H](CO)C(N)=O)[C@@H](C)CC)C(C)C [A19-Magainin 2-NH2, reference compound] (H-GIGKFLHSAKKFGKAFVGAIMNS-NH2) | 29 | 8 | 64 | 16 | 128 | – | – | – | – | – | – | – | – | – | – | – | –
CC[C@H](C)[C@H](NC(=O)[C@H](CCCCN)NC(=O)[C@H](C)NC(=O)CNC(=O)[C@@H](NC(=O)[C@H](CCCCN)NC(=O)[C@@H](NC(=O)[C@H](CCCCN)NC(=O)[C@H](C)NC(=O)CNC(=O)[C@@H](NC(=O)[C@H](CCCCN)NC(=O)[C@@H](NC(=O)[C@H](CCCCN)NC(=O)[C@H](C)NC(=O)CNC(=O)[C@@H](NC(=O)[C@@H](N)CCCCN)[C@@H](C)CC)[C@@H](C)CC)[C@@H](C)CC)[C@@H](C)CC)[C@@H](C)CC)C(N)=O [(KIGAKI)3-NH2, K I G A K I K I G A K I K I G A K I -NH2] (H-KIGAKIKIGAKIKIGAKI-NH2) | – | – | – | – | – | 3 | 8 | 8 (≈ 4.33 µM) | 16 | 8 (≈ 4.33 µM) | 32 | 32 (≈ 17.3 µM) | 64 | most potent | not very effective; also recorded: low lytic activity | least potent | –
CC(C)C[C@H](NC(=O)CNC(=O)[C@H](C)NC(=O)[C@H](CC(C)C)NC(=O)[C@H](CCCCN)NC(=O)[C@H](CCCCN)NC(=O)[C@H](C)NC(=O)[C@H](CC(C)C)NC(=O)CNC(=O)[C@H](C)NC(=O)[C@H](CC(C)C)NC(=O)[C@H](CCCCN)NC(=O)[C@H](CCCCN)NC(=O)[C@H](C)NC(=O)[C@H](CC(C)C)NC(=O)CNC(=O)[C@H](C)NC(=O)[C@H](CC(C)C)NC(=O)[C@@H](N)CCCCN)C(=O)N[C@@H](C)C(=O)N[C@@H](CCCCN)C(N)=O [(KLAGLAK)3-NH2, KLAGLAKKLAGLAKKLAGLAK -NH2] (H-KLAGLAKKLAGLAKKLAGLAK-NH2) | 9 | 8 | 16 | 128 | 64 | – | – | – | – | – | – | – | – | – | – | – | –
CC[C@H](C)[C@H](NC(=O)CN)C(=O)NCC(=O)N[C@@H](CCCCN)C(=O)N[C@@H](Cc1ccccc1)C(=O)N[C@@H](CC(C)C)C(=O)N[C@@H](CCCCN)C(=O)N[C@@H](CCCCN)C(=O)N[C@@H](C)C(=O)N[C@@H](CCCCN)C(=O)N[C@@H](CCCCN)C(=O)N[C@@H](Cc1ccccc1)C(=O)NCC(=O)N[C@@H](CCCCN)C(=O)N[C@@H](C)C(=O)N[C@@H](Cc1ccccc1)C(=O)N[C@H](C(=O)N[C@@H](CCCCN)C(=O)N[C@H](C(=O)N[C@@H](CC(C)C)C(=O)N[C@@H](CCCCN)C(=O)N[C@@H](CCCCN)C(N)=O)[C@@H](C)CC)C(C)C [MSI-78, reference compound] (H-GIGKFLKKAKKFGKAFVKILKK-NH2) | 9 | 8 | 8 | 4 | 64 | – | – | – | – | – | – | – | – | – | – | – | –
CC[C@H](C)[C@H](NC(=O)[C@H](C)NC(=O)CNC(=O)[C@H](C)NC(=O)[C@H](CCCCN)NC(=O)[C@H](CO)NC(=O)[C@H](C)NC(=O)[C@H](CCSC)NC(=O)CN)C(=O)N[C@@H](C)C(=O)NCC(=O)N[C@@H](CCCCN)C(=O)N[C@H](C(=O)N[C@@H](C)C(=O)N[C@@H](CCCCN)C(=O)N[C@H](C(=O)N[C@@H](C)C(=O)N[C@@H](CC(C)C)C(=O)N[C@@H](CCCCN)C(=O)N[C@@H](C)C(=O)N[C@@H](CC(C)C)C(N)=O)C(C)C)[C@@H](C)CC [PGLa, GMASKAGAIAGKIAKVALKAL -NH2, reference compound] (H-GMASKAGAIAGKIAKVALKAL-NH2; N-terminus assumed) | 1 | 32 | 64 | 128 | 128 | – | – | – | – | – | – | – | – | quite low | not very effective | most potent | most potent
CC[C@H](C)[C@H](NC(=O)CN)C(=O)NCC(=O)N[C@@H](CCCCN)C(=O)N[C@@H](Cc1ccccc1)C(=O)N[C@@H](CC(C)C)C(=O)N[C@@H](Cc1c[nH]cn1)C(=O)N[C@@H](CO)C(=O)N[C@@H](C)C(=O)N[C@@H](CCCCN)C(=O)N[C@@H](CCCCN)C(=O)N[C@@H](Cc1ccccc1)C(=O)NCC(=O)N[C@@H](CCCCN)C(=O)N[C@@H](C)C(=O)N[C@@H](Cc1ccccc1)C(=O)N[C@H](C(=O)NCC(=O)N[C@@H](CCC(=O)O)C(=O)N[C@H](C(=O)N[C@@H](CCSC)C(=O)N[C@@H](CC(N)=O)C(=O)N[C@@H](CO)C(N)=O)[C@@H](C)CC)C(C)C [Magainin 2-NH2, GIGKFLHSAKKFGKAFVGEIMNS -NH2, reference compound] (H-GIGKFLHSAKKFGKAFVGEIMNS-NH2) | 2 | 64 | 256 | 256 | >256 | – | – | – | – | – | – | – | – | – | – | – | –
